Results reported in PubChem BioAssay AID2060907 (Molecular Pharmacology Branch, DTP, NCI, 2025).

Test system: 388556-164-R-J1-PDC complex spheroid viability
Assay: Anticancer human tumor 388556-164-R-J1-PDC patient-derived colon adenocarcinoma cell line growth inhibition [RAS]
Settings: for IC50: curve of first compound; for viability, T/C: stronger effect = lower value
Source text: RAS pathway inhibitors in Combinations in Complex Spheroids
A high-throughput screen of multi-cell type tumor spheroids was designed to identify active combinations of RAS pathway inhibitors and targeted small molecules. Complex spheroids include a stromal component modeled by human endothelial cells (HUVEC) and fibroblasts modeled by human mesenchymal stem cells (MSCs). The concentration ranges selected for each drug and investigational agent were based upon clinically achievable concentrations if the clinical Cmax of the agent was known.
Compounds. The drugs and investigational agents: abemaciclib (NSC768073), cobimetinib (NSC768068), divarasib (GDC6063, NSC841802), docetaxel (NSC628503), GDC-1971 (RLY-1971, NSC841576), gemcitabine (NSC613327), inavolisib (NSC800729), ipatasertib (NSC767898), KB-0742 (NSC834161), MRTX-1133 (NSC836407), osimertinib (NSC779217), RMC-4630 (NSC839698), RMC-6236 (NSC851965), RMC-6291 (NSC852671), Ro-3306 (NSC812927), sapanisertib (NSC764658), SN-38 (NSC673596), staurosporine (NSC755774), SY5609 (NSC837396), and tovorafenib (DAY101, NSC766906), were obtained from the National Cancer Institute (NCI) Developmental Therapeutics Program Chemical Repository. The FDA-approved anticancer drug set is available from the NCI Developmental Therapeutics Program. […] The stock solutions were prepared in dimethyl sulfoxide (DMSO, Sigma-Aldrich, St. Louis, MO, cat. D2650) at 800-fold the tested concentration and stored at -70 degrees C prior to their use. All drugs and investigational agents were tested over a range starting from a high concentration at or near the clinical Cmax and decreasing in half-log increments. If the clinical Cmax for an agent had not been determined, the highest concentration tested was 10 microM.
Cell Culture. All cells were maintained in an incubator at 37 degrees C and 5% CO2 with 95% humidity. The PDC lines were cultured according to standard operating procedures established by the NCI PDMR. All PDCs were thawed and cultured in Matrigel-coated flasks prepared with a working solution of 1X Ham's F-12 nutrient mix, without supplementation (Invitrogen, Waltham, MA, cat. 11765054), 100 U/mL penicillin-streptomycin (Invitrogen, cat. 15140122), and 2.5% Matrigel (Corning Inc., Corning, NY, cat. 354248) for the first three passages. The 362531-283-R-J2-PDC and 782815-120-R-J1-PDC lines were cultured in 6C/Colon 1B media, which includes advanced DMEM/F-12 (Thermo Fisher Scientific, cat. 12634028), 10 mM HEPES (Thermo Fisher Scientific, cat. 15630080), 1X GlutaMAX supplement (Thermo Fisher Scientific, cat. 35050061), 0.1 mg/mL primocin (InvivoGen, San Diego, CA, cat. ant-pm-2), 10% defined fetal bovine serum, heat inactivated (HyClone Laboratories Inc., Logan, UT, cat. SH30070.03HI), 50% L-WRN conditioned media (ATCC, cat. CRL-3276), 1.25 mM N-Acetyl-L-cysteine (Sigma-Aldrich, cat. A9165), 10 mM nicotinamide (Sigma-Aldrich, cat. N0636), 1X B-27 supplement (Thermo Fisher Scientific, cat. 17504044), 1X N-2 supplement (Thermo Fisher Scientific, cat. 17502048), 50 ng/mL human EGF (Thermo Fisher Scientific, cat. PHG0311), and 10 microM Y-27632 dihydrochloride (Tocris Bioscience, cat. 1254). The K12877-001-R-J1-PDC line was cultured in 6I media, which includes all 6C/Colon 1B media plus 10 ng/mL human FGF-10 (PeproTech, cat. 100-26), 1 ng/mL human FGF-2 (PeproTech, cat. 100-18B), 1 µM prostaglandin E2 (Tocris Bioscience, cat. 2296), […] hydrocortisone (Sigma-Aldrich, cat. H4001), and […] bovine insulin (Sigma-Aldrich, cat. I6634). The K86415-001-R-J1-PDC line was cultured in 6D media, which includes all 6C/Colon 1B media components minus the L-WRN conditioned media. The 485176-168-R4-J1-PDC was cultured in PANC media, which includes all 6C/Colon 1B media plus 100 ng/mL human FGF-10 (PeproTech, cat. 100-26), 500 nM SB-431542 (Selleckchem, cat. S1067), and 10 nM gastrin (Tocris Bioscience, cat. 3006). […]

[1] = second compound 0.000949 µM, first compound 0.0316 µM
[2] = second compound 0.000949 µM, first compound 0.1 µM
[3] = second compound 0.000949 µM, first compound 0.316 µM
[4] = second compound 0.000949 µM, first compound 1 µM
[5] = second compound 0.003 µM, first compound 0.0316 µM
[6] = second compound 0.003 µM, first compound 0.1 µM
[7] = second compound 0.003 µM, first compound 0.316 µM
[8] = second compound 0.003 µM, first compound 1 µM
[9] = second compound 0.00949 µM, first compound 0.0316 µM
[10] = second compound 0.00949 µM, first compound 0.1 µM
[11] = second compound 0.00949 µM, first compound 0.316 µM
[12] = second compound 0.00949 µM, first compound 1 µM
[13] = second compound 0.03 µM, first compound 0.0316 µM
[14] = second compound 0.03 µM, first compound 0.1 µM
[15] = second compound 0.03 µM, first compound 0.316 µM
[16] = second compound 0.03 µM, first compound 1 µM
[17] = second compound 0.0949 µM, first compound 0.0316 µM
[18] = second compound 0.0949 µM, first compound 0.1 µM
[19] = second compound 0.0949 µM, first compound 0.316 µM
[20] = second compound 0.0949 µM, first compound 1 µM
[21] = second compound 0.3 µM, first compound 0.0316 µM
[22] = second compound 0.3 µM, first compound 0.1 µM
[23] = second compound 0.3 µM, first compound 0.316 µM
[24] = second compound 0.3 µM, first compound 1 µM
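Note: spheroids exposed to compound for 7 days before readout.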
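Throughout, for viability, T/C: 100% = DMSO vehicle control luminescence.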

## Nc1ccn(C2OC(CO)C(O)C2(F)F)c(=O)n1 (centres undefined) + CCn1c(-c2cc(N3CCN(C)CC3)cnc2C(C)OC)c2c3cc(ccc31)-c1csc(n1)CC(NC(=O)C1CC1C)C(=O)N1CCCC(N1)C(=O)OCC(C)(C)C2
Second compound 0.000949 µM
  IC50: > 1 µM
Second compound 0.003 µM
  IC50: > 1 µM
Second compound 0.00949 µM
  IC50: > 1 µM
Second compound 0.03 µM
  IC50: 0.0902 µM
Second compound 0.0949 µM
  IC50: < 0.00316 µM
Second compound 0.3 µM
  IC50: < 0.00316 µM
Second compound 0.000949 µM, first compound 0.00316 µM
  viability, T/C: 88.9%
Second compound 0.000949 µM, first compound 0.01 µM
  viability, T/C: 93.5%
[1]
  viability, T/C: 76.6%
[2]
  viability, T/C: 73.6%
[3]
  viability, T/C: 67.1%
[4]
  viability, T/C: 71.1%
Second compound 0.003 µM, first compound 0.00316 µM
  viability, T/C: 101%
Second compound 0.003 µM, first compound 0.01 µM
  viability, T/C: 84%
[5]
  viability, T/C: 70%
[6]
  viability, T/C: 65%
[7]
  viability, T/C: 65.3%
[8]
  viability, T/C: 61.8%
Second compound 0.00949 µM, first compound 0.00316 µM
  viability, T/C: 80.1%
Second compound 0.00949 µM, first compound 0.01 µM
  viability, T/C: 62.9%
[9]
  viability, T/C: 60.7%
[10]
  viability, T/C: 57.8%
[11]
  viability, T/C: 56.9%
[12]
  viability, T/C: 52.7%
Second compound 0.03 µM, first compound 0.00316 µM
  viability, T/C: 72%
Second compound 0.03 µM, first compound 0.01 µM
  viability, T/C: 53.4%
[13]
  viability, T/C: 56.5%
[14]
  viability, T/C: 47.1%
[15]
  viability, T/C: 52.3%
[16]
  viability, T/C: 46.1%
Second compound 0.0949 µM, first compound 0.00316 µM
  viability, T/C: 42.1%
Second compound 0.0949 µM, first compound 0.01 µM
  viability, T/C: 46.2%
[17]
  viability, T/C: 40.6%
[18]
  viability, T/C: 38.6%
[19]
  viability, T/C: 40.6%
[20]
  viability, T/C: 36.4%
Second compound 0.3 µM, first compound 0.00316 µM
  viability, T/C: 33.9%
Second compound 0.3 µM, first compound 0.01 µM
  viability, T/C: 35%
[21]
  viability, T/C: 32.5%
[22]
  viability, T/C: 30.1%
[23]
  viability, T/C: 31.4%
[24]
  viability, T/C: 28.8%

## CC(C)NCC(C(=O)N1CCN(c2ncnc3c2C(C)CC3O)CC1)c1ccc(Cl)cc1 (centres undefined) + CCn1c(-c2cc(N3CCN(C)CC3)cnc2C(C)OC)c2c3cc(ccc31)-c1csc(n1)CC(NC(=O)C1CC1C)C(=O)N1CCCC(N1)C(=O)OCC(C)(C)C2
Second compound 0.000949 µM
  IC50: > 10 µM
Second compound 0.003 µM
  IC50: > 10 µM
Second compound 0.00949 µM
  IC50: > 10 µM
Second compound 0.03 µM
  IC50: 5.63 µM
Second compound 0.0949 µM
  IC50: < 0.0316 µM
Second compound 0.3 µM
  IC50: < 0.0316 µM
[1]
  viability, T/C: 105%
[2]
  viability, T/C: 107%
[3]
  viability, T/C: 96.4%
[4]
  viability, T/C: 91.2%
Second compound 0.000949 µM, first compound 3.16 µM
  viability, T/C: 95%
Second compound 0.000949 µM, first compound 10 µM
  viability, T/C: 103%
[5]
  viability, T/C: 102%
[6]
  viability, T/C: 96.5%
[7]
  viability, T/C: 95.4%
[8]
  viability, T/C: 82%
Second compound 0.003 µM, first compound 3.16 µM
  viability, T/C: 84.9%
Second compound 0.003 µM, first compound 10 µM
  viability, T/C: 88%
[9]
  viability, T/C: 86%
[10]
  viability, T/C: 80%
[11]
  viability, T/C: 69.4%
[12]
  viability, T/C: 73.9%
Second compound 0.00949 µM, first compound 3.16 µM
  viability, T/C: 84.8%
Second compound 0.00949 µM, first compound 10 µM
  viability, T/C: 58.8%
[13]
  viability, T/C: 58.2%
[14]
  viability, T/C: 65.7%
[15]
  viability, T/C: 57.1%
[16]
  viability, T/C: 56%
Second compound 0.03 µM, first compound 3.16 µM
  viability, T/C: 51.9%
Second compound 0.03 µM, first compound 10 µM
  viability, T/C: 47.8%
[17]
  viability, T/C: 45.7%
[18]
  viability, T/C: 46.5%
[19]
  viability, T/C: 38.9%
[20]
  viability, T/C: 36.3%
Second compound 0.0949 µM, first compound 3.16 µM
  viability, T/C: 40.9%
Second compound 0.0949 µM, first compound 10 µM
  viability, T/C: 33%
[21]
  viability, T/C: 31.9%
[22]
  viability, T/C: 31.5%
[23]
  viability, T/C: 30.5%
[24]
  viability, T/C: 28.1%
Second compound 0.3 µM, first compound 3.16 µM
  viability, T/C: 24.4%
Second compound 0.3 µM, first compound 10 µM
  viability, T/C: 22.8%
